{"source": "paper PMC11211543", "about": "“Molecular mimicry of SARS-COV-2 antigens as a possible natural anti-cancer preventive immunization” (Frontiers in Immunology, 2024)", "key": {"[1]": {"system": "CD3+/CD8+ T cells of PBMCs from healthy vaccinated donors", "assay": "pMHC multimer (tetramer) T cell staining", "assay_type": "cell-based, human", "conditions": "MHC-class I tetramer staining"}, "[2]": {"system": "PBMCs from HLA-A*02:01–positive individuals", "assay": "IFN-γ ELISpot assay", "assay_type": "cell-based, human", "conditions": "10 μg/mL peptide, 3×10^5 PBMCs per well, 20 hours, 37°C; SFU per 10^6 PBMCs; mean of subjects, triplicate tests averaged"}, "[3]": {"system": "CD3+/CD8+ T cells of PBMCs from vaccinated donors", "assay_type": "cell-based, human", "conditions": "for sum of the reactivities of all subjects for the epitope pair: value of the pair viral epitope/TAA; for percentage of circulating reacting CD8+ T cells specific to the spike peptide, average: PBMCs from 7 vaccinated donors stimulated ex vivo 3 days with the Spike peptide, Dextramer loaded with the same viral peptide; for percentage of circulating reacting CD8+ T cells specific to the homologous TAA epitope, average: TAAs paired to non-spike epitopes"}, "CD8+ T cell": {"system": "CD8+ T cell", "conditions": "59 Spike epitopes, different HLA alleles; cited from earlier work", "text": "We have recently assessed T cell reactivity against 59 epitopes predicted in the Spike protein associated to different HLA alleles, covering both the S1 and S2 subunits. In particular, 11 were associated with the HLA-A*02:01 and only three were located in the S1 subunit, namely […] at position 62 and […] at position 269 in the NTD region; […] at position 512 in the RBD region."}}}
{"sequence": "KIADYNYKL [Wuhan, Alpha, Delta]", "values": [{"measurement": "percentage of circulating CD8+ T cells specific for the peptide, average", "setting": "[1]", "result": "0,18%"}, {"measurement": "IFN-γ ELISpot, average over subjects", "setting": "[2]", "result": 9.8, "unit": "SFU"}]}
{"sequence": "VLLSMQGAV", "values": [{"measurement": "sum of the reactivities of all subjects for the epitope pair", "setting": "[3]", "result": "> 9 % of the total circulating T cells"}]}
{"sequence": "HLMSFPQSA", "values": [{"measurement": "percentage of circulating reacting CD8+ T cells specific to the spike peptide, average", "setting": "[3]", "result": 0.8, "unit": "%"}]}
{"sequence": "LTDEMIAQY [reference compound]", "values": [{"measurement": "IFN-γ ELISpot, average over subjects", "setting": "[2]", "result": 10.8, "unit": "SFU"}]}
{"sequence": "YLQPRTFLL", "values": [{"measurement": "immunodominance of CD8+ T cell memory response", "setting": "CD8+ T cell", "result": "strongest immunodominance"}, {"measurement": "percentage of circulating CD8+ T cells specific for the peptide, average", "setting": "[1]", "result": "1,23%"}, {"measurement": "IFN-γ ELISpot, average over subjects", "setting": "[2]", "result": 87.9, "unit": "SFU"}]}
{"sequence": "NYNYLYRLF [reference compound]", "values": [{"measurement": "immunodominance of CD8+ T cell memory response", "setting": "CD8+ T cell", "result": "strongest immunodominance"}]}
{"sequence": "RLLQETELV [reference compound]", "values": [{"measurement": "sum of the reactivities of all subjects for the epitope pair", "setting": "[3]", "result": "~ 6 % of the total circulating T cells"}]}
{"sequence": "KLLEEWNLV", "values": [{"measurement": "sum of the reactivities of all subjects for the epitope pair", "setting": "[3]", "result": "~ 6 % of the total circulating T cells"}]}
{"sequence": "ALLALTSAV [reference compound]", "values": [{"measurement": "percentage of circulating reacting CD8+ T cells specific to the homologous TAA epitope, average", "setting": "[3]", "result": 1.34, "unit": "%"}, {"measurement": "sum of the reactivities of all subjects for the epitope pair", "setting": "[3]", "result": "> 9 % of the total circulating T cells"}]}
{"sequence": "VLNDIFSRL", "values": [{"measurement": "percentage of circulating reacting CD8+ T cells specific to the spike peptide, average", "setting": "[3]", "result": 1.04, "unit": "%"}]}
{"sequence": "FVGEFFTDV [reference compound]", "values": [{"measurement": "percentage of circulating reacting CD8+ T cells specific to the homologous TAA epitope, average", "setting": "[3]", "result": 0.36, "unit": "%"}]}
